Patent publication US20020052295A1, “Diacyl derivatives of propylene diamine having herbicidal activity” (priority 1999, published 2002)

Key:
Conditions in all cases: lowest tested rate giving 80% or greater inhibition, approx. 14 days after planting and treating, greenhouse
PANMI = test: Pre-emergence herbicidal activity on PANMI (wild proso millet); type: in vivo, Panicum miliaceum
Source text: (§1) All such uses, and the biological activity enabling such uses, are embraced by the term “herbicidal” herein. Tables 15 and 16 summarize results of tests conducted as described below to determine the pre-emergence herbicidal activity, in the form of a GR80 value, of illustrative compounds of this invention. […] Where herbicidal activity was evident but 80% inhibition was not achieved at the highest rate tested (typically 1000 g/ha), an asterisk (*) is shown in the following tables. Herbicidal activity evident in the form of symptoms of phytotoxicity, in the absence of at least 80% inhibition at any rate, is indicated in the tables by “phyto”. A blank cell in the following tables indicates no herbicidal or phytotoxic response at any rate tested.
(§2) The pre-emergence tests were conducted by the following procedure. Topsoil was sieved to pass through a 1.27 cm screen. Fertilizer was added to the topsoil and the mixture was then sterilized by heating. The topsoil mixture was placed in a pot and compacted to a depth of 1.0 to 1.25 cm from the top of the pot. Seeds of each of several monocotyledonous and dicotyledonous annual plant species were placed on top of the soil. Additional soil was subsequently placed over the seeds to level-fill the pot. A known amount of each test compound dissolved or suspended in an appropriate organic solvent was diluted with a 50:50 mix of acetone and water and applied to the surface of the soil. After treatment the plants were placed in a greenhouse with a 30/21° C. day/night temperature regime where they received 0.64 cm of overhead irrigation. All subsequent watering consisted of a light overhead mist and/or subirrigation as needed for germination and growth.
(§3) Approximately 14 days after planting and treating, the plants were observed and herbicidal efficacy recorded as percent inhibition by comparison with untreated plants.
(§4) The plant species usually regarded as weeds which were utilized in the tests are identified in the tables below according to the following legend, in which “d” indicates a dicotyledonous species and “m” a monocotyledonous species. All monocotyledonous species included in the tests herein are grasses.

AMARE = test: Pre-emergence herbicidal activity on AMARE (redroot pigweed); type: in vivo, Amaranthus retroflexus
Source text: as §1, §2, §3, §4

PANDI = test: Pre-emergence herbicidal activity on PANDI (fall panicum); type: in vivo, Panicum dichotomiflorum
Source text: as §1, §2, §3, §4

DIGSA = test: Pre-emergence herbicidal activity on DIGSA (large crabgrass); type: in vivo, Digitaria sanguinalis
Source text: as §1, §2, §3, §4

SETFA = test: Pre-emergence herbicidal activity on SETFA (giant foxtail); type: in vivo, Setaria faberi
Source text: as §1, §2, §3, §4

CHEAL = test: Pre-emergence herbicidal activity on CHEAL (common lambsquarters); type: in vivo, Chenopodium album
Source text: as §1, §2, §3, §4

CIRAR = test: Pre-emergence herbicidal activity on CIRAR (canada thistle, seedling); type: in vivo, Cirsium arvense
Source text: as §1, §2, §3, §4

DATST = test: Pre-emergence herbicidal activity on DATST (jimsonweed); type: in vivo, Datura stramonium
Source text: as §1, §2, §3, §4

POROL = test: Pre-emergence herbicidal activity on POROL (common purslane); type: in vivo, Portulaca oleracea
Source text: as §1, §2, §3, §4

SOLNI = test: Pre-emergence herbicidal activity on SOLNI (black nightshade); type: in vivo, Solanum nigrum
Source text: as §1, §2, §3, §4

ABUTH = test: Pre-emergence herbicidal activity on ABUTH (velvetleaf); type: in vivo, Abutilon theophrasti
Source text: as §1, §2, §3, §4

SORHA = test: Pre-emergence herbicidal activity on SORHA (johnsongrass, seedling); type: in vivo, Sorghum halepense
Source text: as §1, §2, §3, §4

BRAPP = test: Pre-emergence herbicidal activity on BRAPP (broadleaf signalgrass); type: in vivo, Brachiaria platyphylla
Source text: as §1, §2, §3, §4

CONAR = test: Pre-emergence herbicidal activity on CONAR (field bindweed); type: in vivo, Convolvulus arvensis
Source text: as §1, §2, §3, §4

Compound	Pre-emergence activity (GR80) on PANMI (PANMI)	Pre-emergence activity (GR80) on AMARE (AMARE) [g/ha]	Pre-emergence activity (GR80) on PANDI (PANDI)	Pre-emergence activity (GR80) on DIGSA (DIGSA)	Pre-emergence activity (GR80) on SETFA (SETFA)	Pre-emergence activity (GR80) on CHEAL (CHEAL)	Pre-emergence activity (GR80) on CIRAR (CIRAR)	Pre-emergence activity (GR80) on DATST (DATST)	Pre-emergence activity (GR80) on PORAL (POROL) [g/ha]	Pre-emergence activity (GR80) on SOLNI (SOLNI)	Pre-emergence activity (GR80) on ABUTH (ABUTH)	Pre-emergence activity (GR80) on SORHA (SORHA)	Pre-emergence activity (GR80) on BRAPP (BRAPP)	Pre-emergence activity (GR80) on CONAR (CONAR)
CC(CNC(=O)c1cccc(C(F)(F)F)c1)NC(=O)c1ccc(F)c(C(F)(F)F)c1 (stereo not shown) [Example 6]	phyto	1000	phyto	phyto	phyto									
O=C(NCC(CF)NC(=O)c1cccc(C(F)(F)F)c1)c1cccc(C(F)(F)F)c1 (stereo not shown) [Example 10, N,N′-(3-fluoro-1,2-propanediylbis)-3-(trifluoromethyl) benzamide]	phyto	500	1000 g/ha	phyto	phyto	750 g/ha	phyto	phyto	1000					
Cc1c(C(=O)NC(C)CNC(=O)c2cccc(C(F)(F)F)c2)cccc1C(F)(F)F (stereo not shown) [Example 16]	1000 g/ha	250	* (Where herbicidal activity was evident but 80% inhibition was not achieved at the highest rate tested (typically 1000 g/ha), an asterisk (*) is shown)	750 g/ha	500 g/ha	1000 g/ha	750 g/ha	1000 g/ha		500 g/ha	* (Where herbicidal activity was evident but 80% inhibition was not achieved at the highest rate tested (typically 1000 g/ha), an asterisk (*) is shown)			
COc1c(C(=O)NC(C)CNC(=O)c2cccc(C(F)(F)F)c2)cccc1C(F)(F)F (stereo not shown) [Example 17]		1000	phyto	1000 g/ha	phyto	1000 g/ha		phyto	1000	phyto				
CC(CNC(=O)c1cccc(C(F)(F)F)c1)NC(=O)c1cccc(C(F)(F)F)c1OCc1ccccc1 (stereo not shown) [Example 20]	phyto	1000	phyto	phyto		phyto	phyto							
CCOc1c(F)cccc1C(=O)N[C@H](C)CNC(=O)c1cccc(C(F)(F)F)c1 [Example 41, R-2-ethoxy-3-fluoro-N-[1-methyl-2-(3-trifluoromethyl)phenylcarbonylamino]ethylbenzamide]	phyto	250	750 g/ha		1000 g/ha	750 g/ha		1000 g/ha	500	phyto		phyto		
CC(CNC(=O)c1cccc(C(F)(F)F)c1)NC(=O)c1cccc(Cl)c1 (stereo not shown) [Example 43]	phyto	250	phyto	750 g/ha	phyto	500 g/ha	* (Where herbicidal activity was evident but 80% inhibition was not achieved at the highest rate tested (typically 1000 g/ha), an asterisk (*) is shown)	phyto	500	phyto		phyto	phyto	
Cc1c(I)cccc1C(=O)NC(C)CNC(=O)c1cccc(C(F)(F)F)c1 (stereo not shown) [Example 61]		750	750 g/ha	1000 g/ha	1000 g/ha	1000 g/ha	250 g/ha	1000 g/ha	500	250 g/ha	* (Where herbicidal activity was evident but 80% inhibition was not achieved at the highest rate tested (typically 1000 g/ha), an asterisk (*) is shown)			
COc1c(C)cccc1C(=O)NC(C)CNC(=O)c1cccc(C(F)(F)F)c1 (stereo not shown) [Example 68]			phyto	phyto										
CC(CNC(=O)c1cccc(F)c1)NC(=O)c1cccc(C(F)(F)F)c1F (stereo not shown) [Example 142]	1000 g/ha	125	500 g/ha	250 g/ha	125 g/ha	500 g/ha	64 g/ha	750 g/ha	125	750 g/ha	1000 g/ha		750 g/ha	
CC(CNC(=O)c1cccc(Cl)c1)NC(=O)c1cccc(C(F)(F)F)c1F (stereo not shown) [Example 145]		125	500 g/ha	250 g/ha	750 g/ha	125 g/ha	125 g/ha		125	1000 g/ha	500 g/ha			
CC(CNC(=O)c1cccc(Cl)c1F)NC(=O)c1cccc(Cl)c1F (stereo not shown) [Example 181]		500	phyto	500 g/ha	phyto	750 g/ha	* (Where herbicidal activity was evident but 80% inhibition was not achieved at the highest rate tested (typically 1000 g/ha), an asterisk (*) is shown)	* (Where herbicidal activity was evident but 80% inhibition was not achieved at the highest rate tested (typically 1000 g/ha), an asterisk (*) is shown)		* (Where herbicidal activity was evident but 80% inhibition was not achieved at the highest rate tested (typically 1000 g/ha), an asterisk (*) is shown)	phyto			phyto
Cc1c(Cl)cccc1C(=O)NCC(C)NC(=O)c1cccc(Cl)c1C (stereo not shown) [Example 203]						1000 g/ha	phyto	phyto		phyto	phyto			
CC(CNC(=O)c1cccc(C(F)(F)F)c1)NC(=O)c1cc(C(C)(C)C)nn1C (stereo not shown) [Example 262]				phyto										phyto
CC(CNC(=O)c1cccc(C(F)(F)F)c1)NC(=O)c1c(-c2ccc(F)cc2Cl)noc1C(F)(F)Cl (stereo not shown) [Example 264]		250	1000 g/ha			500 g/ha		1000 g/ha	500	250 g/ha				
